Measurements from patent publication US12390440B2, “Immunomodulating trifluoromethyl-aminal azalides” (Zoetis Services LLC, priority 2020, dated 2025).
≈ marks a conversion by molar mass, not a printed value. Where two headings read alike, the source gives them in different places. Each block holds one compound with its values, some of them ahead of it.

What was measured:
H. somni = assay: MIC, H. somni; conditions: H. somni strains
P. multocida 46572 = assay: In vivo mouse lung infection challenge model (murine efficacy); conditions: for % Survival: 20 mg/kg subcutaneous, harmonized survival relative to vehicle and M9 controls, study ended Day 10
Protocol: The challenge organism was P. multocida 46572. Target challenge concentration was 5×10^2 CFU/mouse. Isolated colonies from overnight growth (37° C. with 5% CO2) on trypticase soy agar (TSA II) blood plates were transferred to room temperature Brain Heart Infusion Broth (BHIB). The broth culture was incubated 3.5-4 hours to approximately mid-log phase of growth, as measured by forward light scatter at 600 nm (OD600, 0.200). The culture was centrifuged to collect the bacterial pellet. The pellet was re-suspended in BHIB and adjusted to provide an approximate concentration of 2.7 log^10 colony forming units (CFU) in 0.04 mL at the highest concentration. The challenge inoculum concentration was confirmed by serial dilutions of the inoculum for CFU enumeration. On Day −5, CD-1 female mice were received. Mice were given standard rodent diet and water ad libitum. On Day 0, bacterial inoculum (0.04 mL) was administered to each mouse (n=36) intranasally. Compounds of the invention were dosed at 20 mg/kg (0.1 mL) in a buffered (˜pH 5.4) propylene glycol, monothioglycerol and water solution by subcutaneous injection. Animals were observed from Days 1-10. The study was terminated on Day 10. In addition, some treatment groups were sampled at 6, 24, and 48 hours post bacterial challenge for RNA sequence analysis of lung tissue.
The murine efficacy model (P. multocida challenge) was optimized, and the treatment group size was powered to be able to observe statistically significant improvement of survival to expected ranges for immunomodulatory compounds. The experimental design was a randomized complete block design. Mice were individually identified and treatment groups comingled within a cage, with every treatment group equally represented across cages. Mortality was the primary variable. Mortality data was analyzed using a generalized mixed model with fixed effect of treatment and random effect of block. Survival time was also analyzed using the SAS PHREG (survival analysis) procedure to examine whether there were significant differences between treatment groups and the control group. Numerous compounds of the invention and M9 (positive control) were tested in this model at a dose of 20 mg/kg (Table 3). Typical percent survival for no treatment control is in the range of 0-20% based on study to study variation in challenge inoculum and rate of infection. […] Mouse survival for M9 was about 90-100%, further supporting its residual antibacterial properties against the bacterial strain. Harmonized survival accounts for % survival relative to vehicle (“−” control) and M9 (“+” control)) survival data (Table 3).

P. multocida [1] = assay: Murine P. multocida intranasal challenge study, survival; format: in vivo; conditions: 5×10^3 CFU/mouse
Protocol: In one murine P. multocida intranasal challenge study, mice were administered tulathromycin (16 mg/kg; T02), M9 (32 mg/kg; T03), or ceftiofur (9 mg/kg; T04) by subcutaneous injection 18 hours after bacterial challenge (5×10^3 CFU/mouse) for lung tissue RNA sequence analysis. Survival at Day 7 was about 80%, 50%, and 90% for T02, T03, and T04, respectively, compared to placebo at 0%. Differential gene expression from total lung tissue RNA sequence analysis indicated at least 226 unique genes were up or down regulated (with significance) for T03. Output from ingenuity pathway analysis of these unique genes predicted major upstream regulators of the involved pathways. Data was analyzed based on the number of genes being modulated in the same direction that were associated with a given upstream regulator. An activation z-score of 2 or greater is considered significant and the direction change is indicated by + (activated) or − (inhibited). The top 5 pathways included: IL-9 signaling, glucocorticoid receptor signaling, prolactin signaling, JAK STAT signaling, and IL-17 signaling. The top 6 upstream regulators (activation z-score) included: lipopolysaccharide (−6.725), TNF (−4.669), IFNγ (−5.759), IL-1ß (−5.947), STAT1 (−2.787), and poly rI:rC-RNA (−5.289). Even though this study was run in the murine model, the top upstream regulators identified as being modulated by M9 include an almost ubiquitous overlap with the pathways identified in the natural disease study as being key mediators in BRD, and therefore is modulating highly relevant pathways in BRD pathobiology.

S. aureus = assay: MIC, S. aureus; conditions: Staphylococcus aureus
[2] = tested on: M. haemolytica (strain: OSU-012103-BHI); assay: Bovine M. haemolytica intratracheal lung challenge model; conditions: bovine M. haemolytica challenge
TNF-α = assay: Bovine whole blood assay, LPS-induced TNF-α; format: cell-based; conditions: Bos taurus, fresh whole bovine blood, LPS 1 μg/mL
Protocol: (§1) (protected from light) for 30 minutes.

IL-1β = assay: Bovine whole blood assay, IL-1β; format: cell-based; conditions: overstimulation of IL-1β, perceived cellular toxicity concentration;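 note: compound concentration at which rising IL-1β release signals cytotoxicity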
Protocol: as §1

IL-6 = assay: Bovine whole blood assay, IL-6; format: cell-based; conditions: Bos taurus, fresh whole bovine blood, LPS 1 μg/mL
Protocol: as §1

E. coli = assay: MIC, E. coli; conditions: Escherichia coli
P. multocida [3] = assay: MIC, P. multocida; conditions: for MIC: Pasteurella multocida
M. haemolytica = assay: MIC, M. haemolytica; conditions: for MIC: Mannheimia haemolytica
[4] = tested on: BRD pathogens, M. haemolytica and P. multocida; assay: MIC screening panel, BRD pathogens (CLSI broth micro-dilution); conditions: read-out: MIC flag (*) at Ex #
[5] = P. multocida 46572, murine efficacy challenge strain
[6] = M. haemolytica 46571, bovine efficacy challenge strain

MIC values, range over strains (H. somni): 0.12 to 2 µg/mL
SMILES: CS(=O)(=O)c1ccc([C@@H](O)[C@@H](CF)NC(=O)C(Cl)Cl)cc1 [florfenicol]

SMILES: CC[C@H]1OC(=O)[C@H](C)[C@@H](O[C@H]2C[C@@](C)(OC)[C@](O)(CNCCOC)[C@H](C)O2)[C@H](C)[C@@H](O[C@@H]2O[C@H](C)C[C@H]3[C@H]2OC(C(F)(F)F)N3C)[C@](C)(O)C[C@@H](C)CN[C@H](C)[C@@H](O)[C@]1(C)O (stereo partly drawn) [Example A-2, (2R,3S,4R,5R,8R,10R,11R,12S,13S,14R)-11-(((3aR,4S,6R,7aS)-1,6-dimethyl-2-(trifluoromethyl)hexahydro-2H-pyrano[4,3-d]oxazol-4-yl)oxy)-2-ethyl-3,4,10-trihydroxy-13-(((2R,4R,5S,6S)-5-hydroxy-4-methoxy-5-(((2-methoxyethyl)amino)methyl)-4,6-dimethyltetrahydro-2H-pyran-2-yl)oxy)-3,5,8,10,12,14-hexamethyl-1-oxa-6-azacyclopentadecan-15-one]
% Survival (P. multocida 46572): 18%

SMILES: CCCNC[C@]1(O)[C@H](C)O[C@@H](O[C@H]2[C@H](C)[C@@H](O[C@@H]3O[C@H](C)C[C@H](N(C)C)[C@H]3O)[C@](C)(O)C[C@@H](C)CN[C@H](C)[C@@H](O)[C@](C)(O)[C@@H](CC)OC(=O)[C@@H]2C)C[C@@]1(C)OC [tulathromycin, (2R,3S,4R,5R,8R,10R,11R,12S,13S,14R)-11-(((2S,3R,4S,6R)-4-(dimethylamino)-3-hydroxy-6-methyltetrahydro-2H-pyran-2-yl)oxy)-2-ethyl-3,4,10-trihydroxy-13-(((2R,4R,5S,6S)-5-hydroxy-4-methoxy-4,6-dimethyl-5-((propylamino)methyl)tetrahydro-2H-pyran-2-yl)oxy)-3,5,8,10,12,14-hexamethyl-1-oxa-6-azacyclopentadecan-15-one]
Survival at Day 7 (P. multocida [1]; 16 mg/kg (T02) subcutaneous 18 hours after challenge): about 80%
MIC (S. aureus): 8 µg/mL (≈ 9.92 µM)
IL-6 levels [2]: significantly reduced

SMILES: CC[C@H]1OC(=O)[C@H](C)[C@@H](O[C@H]2C[C@@](C)(OC)[C@](O)(CN3CCN(C)CC3)[C@H](C)O2)[C@H](C)[C@@H](O[C@@H]2O[C@H](C)C[C@H]3[C@H]2OC(C(F)(F)F)N3C)[C@](C)(O)C[C@@H](C)CN[C@H](C)[C@@H](O)[C@]1(C)O (stereo partly drawn) [Example B-2, (2R,3S,4R,5R,8R,10R,11R,12S,13S,14R)-11-(((3aR,4S,6R,7aS)-1,6-dimethyl-2-(trifluoromethyl)hexahydro-2H-pyrano[4,3-d]oxazol-4-yl)oxy)-2-ethyl-3,4,10-trihydroxy-13-(((2R,4R,5S,6S)-5-hydroxy-4-methoxy-4,6-dimethyl-5-((4-methylpiperazin-1-yl)methyl)tetrahydro-2H-pyran-2-yl)oxy)-3,5,8,10,12,14-hexamethyl-1-oxa-6-azacyclopentadecan-15-one]
IC50 (TNF-α): 5 µM
IL-1β OS of LPS (IL-1β): 5 µM
% Survival (P. multocida 46572): 47%
clinical efficacy in P. multocida infection in mice (P. multocida 46572; mouse, in vivo): clinically efficacious

MIC values, range over strains (H. somni): <0.06 to 1 µg/mL
SMILES: CCN1CCN(c2cc3c(cc2F)c(=O)c(C(=O)O)cn3C2CC2)CC1 [enrofloxacin]

SMILES: CC[C@H]1OC(=O)[C@H](C)[C@@H](O[C@H]2C[C@@](C)(OC)[C@](O)(CNCCO)[C@H](C)O2)[C@H](C)[C@@H](O[C@@H]2O[C@H](C)C[C@H]3[C@H]2OC(C(F)(F)F)N3C)[C@](C)(O)C[C@@H](C)CN[C@H](C)[C@@H](O)[C@]1(C)O (stereo partly drawn) [Example A-3, (2R,3S,4R,5R,8R,10R,11R,12S,13S,14R)-11-(((3aR,4S,6R,7aS)-1,6-dimethyl-2-(trifluoromethyl)hexahydro-2H-pyrano[4,3-d]oxazol-4-yl)oxy)-2-ethyl-3,4,10-trihydroxy-13-(((2R,4R,5S,6S)-5-hydroxy-5-(((2-hydroxyethyl)amino)methyl)-4-methoxy-4,6-dimethyltetrahydro-2H-pyran-2-yl)oxy)-3,5,8,10,12,14-hexamethyl-1-oxa-6-azacyclopentadecan-15-one]
IC50 (TNF-α): 20 µM
IL-1β OS of LPS (IL-1β): 32 µM
IC50 (IL-6): 40 µM
% Survival (P. multocida 46572): 11%
MIC (E. coli; E. coli 25922): > 64 µg/mL
MIC (E. coli; E. coli W3110): > 64 µg/mL
MIC (S. aureus): > 64 µg/mL
MIC (P. multocida [3]; P. multocida 43137): > 64 µg/mL
MIC (P. multocida [3]; [5]): > 64 µg/mL
MIC (M. haemolytica; M. haemolytica 12726): > 64 µg/mL
MIC (M. haemolytica; M. haemolytica 33396): > 64 µg/mL
MIC (M. haemolytica; [6]): > 64 µg/mL

MIC values, range over strains (H. somni): 0.25 to 8 µg/mL
MIC values, range over strains (P. multocida [3]; the same P. multocida strains of the screening panel): 1 to 2 µg/mL
SMILES: CCCN1C[C@H](C)[C@@H](O)[C@](C)(O)[C@@H](CC)OC(=O)[C@H](C)[C@@H](O[C@H]2C[C@@](C)(OC)[C@@H](O)[C@H](C)O2)[C@H](C)[C@@H](O[C@@H]2O[C@H](C)C[C@H](N(C)C)[C@H]2O)[C@](C)(O)C[C@H]1C [gamithromycin, reference compound]
MIC values, range over strains (M. haemolytica; the same M. haemolytica strains of the screening panel): 0.5 to 1 µg/mL

SMILES: CO/N=C(\C(=O)N[C@@H]1C(=O)N2C(C(=O)O)=C(CSC(=O)c3ccco3)CS[C@H]12)c1csc(N)n1 [ceftiofur]
Survival at Day 7 (P. multocida [1]; 9 mg/kg (T04) subcutaneous 18 hours after challenge): ~90%

SMILES: CCCNC[C@]1(O)[C@H](C)O[C@@H](O[C@H]2[C@H](C)[C@@H](O[C@@H]3O[C@H](C)C[C@H]4[C@H]3OC(C(F)(F)F)N4C)[C@](C)(O)C[C@@H](C)CN[C@H](C)[C@@H](O)[C@](C)(O)[C@@H](CC)OC(=O)[C@@H]2C)C[C@@]1(C)OC (stereo partly drawn) [Example A-1, (2R,3S,4R,5R,8R,10R,11R,12S,13S,14R)-11-(((3aR,4S,6R,7aS)-1,6-dimethyl-2-(trifluoromethyl)hexahydro-2H-pyrano[4,3-d]oxazol-4-yl)oxy)-2-ethyl-13-(((2R,4R,5S,6S)-5-((propylamino)methyl)-5-hydroxy-4-methoxy-4,6-dimethyltetrahydro-2H-pyran-2-yl)oxy)-3,4,10-trihydroxy-3,5,8,10,12,14-hexamethyl-1-oxa-6-azacyclopentadecan-15-one]
IC50 (TNF-α): < 3 µM
IL-1β OS of LPS (IL-1β): >500 µM
% Survival (P. multocida 46572): 43%
MIC (E. coli; E. coli 25922): > 64 µg/mL
MIC (E. coli; E. coli W3110): > 64 µg/mL
MIC (S. aureus): > 64 µg/mL
MIC (P. multocida [3]; P. multocida 43137): > 64 µg/mL
MIC (P. multocida [3]; [5]): 64 µg/mL (≈ 73.4 µM)
MIC (P. multocida [3]; read-out: MIC flag (*) at Ex. #, P. multocida challenge strain (46572K), Table 3): < 64 µg/mL
MIC (M. haemolytica; M. haemolytica 12726): > 64 µg/mL
MIC (M. haemolytica; M. haemolytica 33396): > 64 µg/mL
MIC (M. haemolytica; [6]): > 64 µg/mL
MIC [4]: < 64 µg/mL
